Experimental data published in ChEMBL document CHEMBL1201862, “PubChem BioAssay data set” (2004).
Active and inactive are the calls of the source.

How the values were obtained:
INS1 = test: beta cell apoptosis inhibitors, cytokine rescue, dose response, luminescence, retest (AID 449756); format: functional, cell-based; conditions: Rattus norvegicus;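 also: cell death triggered by IL-1 beta plus TNF-alpha plus IFN-gamma mixture; protective hits raise ATP signal compared with cytokine alone wells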
Cytochrome P450 2C19 = Cytochrome P450 2C19 (Homo sapiens, UniProt P33261); test: Cytochrome panel assay with activity outcomes. Panel member name: p450-cyp2c19 Compounds with AC50 equal or less than 10 uM are considered active; format: functional; conditions: read-out: AC50
Cytochrome P450 2C9 = Cytochrome P450 2C9 (Homo sapiens, UniProt P11712)
[1] = biological target: T1, Heat shock factor protein 1 (Mus musculus, UniProt P38532); test: inhibition of MG132-induced HSE-luciferase signal, confirmation, cell-based, NIH3T3, luminescence, dose retest (AID 2382); format: functional;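 also: NIH3T3 fibroblasts with HSF1-driven luciferase reporter stressed by proteasome inhibitor MG132; luminescence from HSF1-driven luciferase expression after 8 hours of MG132 stress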
T1 sequence (P38532 whole entry): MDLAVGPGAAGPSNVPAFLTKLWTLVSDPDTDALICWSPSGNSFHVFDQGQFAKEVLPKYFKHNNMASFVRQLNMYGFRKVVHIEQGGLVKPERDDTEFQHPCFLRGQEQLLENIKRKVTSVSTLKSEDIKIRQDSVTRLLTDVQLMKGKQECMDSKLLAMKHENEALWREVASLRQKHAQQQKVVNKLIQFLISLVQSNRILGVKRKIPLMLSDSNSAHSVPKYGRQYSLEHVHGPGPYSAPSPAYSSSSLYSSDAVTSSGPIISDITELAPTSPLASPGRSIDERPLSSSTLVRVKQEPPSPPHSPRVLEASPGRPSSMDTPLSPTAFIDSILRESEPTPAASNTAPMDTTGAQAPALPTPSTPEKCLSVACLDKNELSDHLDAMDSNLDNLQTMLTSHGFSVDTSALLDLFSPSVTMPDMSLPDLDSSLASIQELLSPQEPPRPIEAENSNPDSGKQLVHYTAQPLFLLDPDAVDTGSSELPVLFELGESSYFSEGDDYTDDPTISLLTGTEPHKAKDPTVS

[2] = biological target: T2, Rac GTPase-activating protein 1 (Homo sapiens, UniProt Q9H0H5); test: MgcRacGAP GTPase-activating activity inhibitors, confirmation, biochemical, ADP Hunter fluorescence, primary and confirmatory (AID 624330); format: functional
T2 sequence (Q9H0H5 whole entry): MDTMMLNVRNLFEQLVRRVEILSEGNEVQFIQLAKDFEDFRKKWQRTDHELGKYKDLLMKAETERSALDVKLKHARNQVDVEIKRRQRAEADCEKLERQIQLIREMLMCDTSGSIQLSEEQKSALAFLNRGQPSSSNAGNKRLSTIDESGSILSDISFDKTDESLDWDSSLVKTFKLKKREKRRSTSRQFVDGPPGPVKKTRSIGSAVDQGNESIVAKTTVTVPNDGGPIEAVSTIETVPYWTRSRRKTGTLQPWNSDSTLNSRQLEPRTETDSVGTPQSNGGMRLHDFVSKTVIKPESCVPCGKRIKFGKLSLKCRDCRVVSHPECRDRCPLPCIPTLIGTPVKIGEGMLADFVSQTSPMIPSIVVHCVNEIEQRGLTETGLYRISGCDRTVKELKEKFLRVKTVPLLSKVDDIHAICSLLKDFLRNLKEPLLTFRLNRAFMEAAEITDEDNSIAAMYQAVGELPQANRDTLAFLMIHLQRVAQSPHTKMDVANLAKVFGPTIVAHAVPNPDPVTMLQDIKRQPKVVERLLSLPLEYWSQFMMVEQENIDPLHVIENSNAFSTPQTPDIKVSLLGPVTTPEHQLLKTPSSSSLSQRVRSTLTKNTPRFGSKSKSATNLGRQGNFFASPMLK

[3] = biological target: T3, Corticotropin-releasing factor receptor 2/Corticotropin-releasing factor-binding protein (Homo sapiens, UniProt P24387+Q13324); test: Dose Response confirmation of uHTS hits for small molecule antagonists of the CRF-binding protein and CRF-R2 receptor complex.; format: functional; conditions: read-out: IC50_Mean
T3 sequence (Q13324 whole entry): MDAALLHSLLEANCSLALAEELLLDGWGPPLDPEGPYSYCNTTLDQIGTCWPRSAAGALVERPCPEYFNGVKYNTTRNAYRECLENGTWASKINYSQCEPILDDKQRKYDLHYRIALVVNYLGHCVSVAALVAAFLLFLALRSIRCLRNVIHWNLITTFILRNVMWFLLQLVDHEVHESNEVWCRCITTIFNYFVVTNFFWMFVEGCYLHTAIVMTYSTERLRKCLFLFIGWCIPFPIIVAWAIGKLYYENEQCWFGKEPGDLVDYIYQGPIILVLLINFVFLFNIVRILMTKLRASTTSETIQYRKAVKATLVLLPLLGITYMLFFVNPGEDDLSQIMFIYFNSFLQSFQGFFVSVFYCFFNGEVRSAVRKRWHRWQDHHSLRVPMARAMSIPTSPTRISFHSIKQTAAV
T3 sequence (P24387 whole entry): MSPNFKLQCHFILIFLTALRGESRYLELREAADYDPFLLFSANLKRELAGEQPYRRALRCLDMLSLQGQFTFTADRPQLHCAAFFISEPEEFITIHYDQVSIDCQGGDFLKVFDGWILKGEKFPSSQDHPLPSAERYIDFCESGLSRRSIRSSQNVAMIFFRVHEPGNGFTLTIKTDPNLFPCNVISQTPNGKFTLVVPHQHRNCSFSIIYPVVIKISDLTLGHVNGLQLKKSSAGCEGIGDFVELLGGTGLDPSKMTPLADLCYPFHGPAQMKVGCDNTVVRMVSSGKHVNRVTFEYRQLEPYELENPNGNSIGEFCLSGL

[4] = biological target: T3, Corticotropin-releasing factor receptor 2/Corticotropin-releasing factor-binding protein; test: activators of CRF receptor 2 with binding protein – uHTS hits, confirmation (AID 602473); format: functional; conditions: read-out: EC50_Mean
[5] = inhibitors of intracellular T. cruzi replication, confirmation, NIH3T3 host cells, beta-gal luminescence (AID 2044); format: functional, cell-based;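 also: intracellular parasites grown in NIH/3T3 mouse fibroblasts as host cells; luminescent beta-galactosidase reporter signal from transgenic T. cruzi replicating inside host cells; inhibitors lower the luminescence signal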
[6] = cytotoxicity toward NIH3T3 fibroblasts, dose response, counter-screen, cell-based, ATP luminescence, mouse fibroblasts (AID 2010); format: functional;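 also: cells exposed to compound for about 90 hours before reading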
Cytochrome P450 1A2 = biological target: T4, Cytochrome P450 1A2 (Homo sapiens, UniProt P05177);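 also: PubChem cytochrome P450 panel assay, CYP1A2 panel member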
T4 sequence (P05177 whole entry): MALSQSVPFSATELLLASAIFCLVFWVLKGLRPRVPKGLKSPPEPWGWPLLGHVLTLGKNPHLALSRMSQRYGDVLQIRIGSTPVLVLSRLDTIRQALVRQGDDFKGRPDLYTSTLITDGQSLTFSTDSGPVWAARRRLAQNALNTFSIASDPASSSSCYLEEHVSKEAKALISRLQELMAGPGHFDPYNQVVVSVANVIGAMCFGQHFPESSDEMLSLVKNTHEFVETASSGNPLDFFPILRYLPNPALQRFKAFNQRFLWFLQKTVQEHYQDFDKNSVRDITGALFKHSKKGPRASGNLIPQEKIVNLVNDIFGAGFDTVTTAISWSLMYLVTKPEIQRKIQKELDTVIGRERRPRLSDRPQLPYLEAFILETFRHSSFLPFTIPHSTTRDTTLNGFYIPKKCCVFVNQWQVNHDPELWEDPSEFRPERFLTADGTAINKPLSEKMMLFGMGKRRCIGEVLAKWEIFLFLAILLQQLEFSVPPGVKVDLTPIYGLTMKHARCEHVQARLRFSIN

Sequence of Cytochrome P450 2C9 (P11712 whole entry): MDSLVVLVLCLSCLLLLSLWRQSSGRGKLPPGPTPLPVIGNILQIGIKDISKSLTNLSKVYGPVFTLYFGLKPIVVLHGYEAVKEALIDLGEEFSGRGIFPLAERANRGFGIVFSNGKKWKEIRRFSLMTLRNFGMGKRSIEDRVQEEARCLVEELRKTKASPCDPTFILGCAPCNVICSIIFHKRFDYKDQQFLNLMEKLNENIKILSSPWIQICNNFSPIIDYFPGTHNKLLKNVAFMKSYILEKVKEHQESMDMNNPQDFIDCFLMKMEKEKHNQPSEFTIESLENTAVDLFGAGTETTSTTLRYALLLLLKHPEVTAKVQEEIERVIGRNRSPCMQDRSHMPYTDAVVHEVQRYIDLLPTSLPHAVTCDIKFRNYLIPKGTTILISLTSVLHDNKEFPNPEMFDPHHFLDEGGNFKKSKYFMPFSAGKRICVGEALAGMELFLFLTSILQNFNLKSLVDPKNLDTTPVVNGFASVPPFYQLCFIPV
Sequence of Cytochrome P450 2C19 (P33261 whole entry): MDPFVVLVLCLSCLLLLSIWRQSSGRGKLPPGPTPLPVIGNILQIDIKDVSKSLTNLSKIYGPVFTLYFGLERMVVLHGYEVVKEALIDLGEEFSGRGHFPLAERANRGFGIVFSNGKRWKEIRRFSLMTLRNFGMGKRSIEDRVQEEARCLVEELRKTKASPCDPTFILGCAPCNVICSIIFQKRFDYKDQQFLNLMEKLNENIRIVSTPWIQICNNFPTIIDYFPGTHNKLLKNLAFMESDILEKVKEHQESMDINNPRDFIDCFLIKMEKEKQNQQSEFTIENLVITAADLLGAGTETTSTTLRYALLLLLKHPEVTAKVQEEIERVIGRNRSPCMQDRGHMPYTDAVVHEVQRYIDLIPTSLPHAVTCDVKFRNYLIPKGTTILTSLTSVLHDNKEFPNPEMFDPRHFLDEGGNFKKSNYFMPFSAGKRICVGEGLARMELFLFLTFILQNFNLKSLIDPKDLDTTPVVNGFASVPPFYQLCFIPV

## Cc1ccc(N(CC(=O)Nc2cc(C)cc(C)c2)S(=O)(=O)c2c(C)noc2C)cc1
INS1
  AC50: 8.43 µM (active)

## CCCNC(=O)OC[C@@H]1O[C@H](CCO/N=C(\C)CCC(=O)OC[C@@H]2O[C@H](c3ccccc3)C=C[C@@H]2Oc2ccc(OC)cc2)C=C[C@@H]1Oc1ccc(OC)cc1
Cytochrome P450 2C19
  AC50: 0.0794 µM (inconclusive)
Cytochrome P450 2C9
  AC50: 3.98 µM (inconclusive)

## COC(=O)c1nc(Cl)c(Cl)c(N)c1Cl
[1]
  EC50: > 195 µM (not active)

## O=C(O)CCCn1c(=S)[nH]c2c(sc3ccc([N+](=O)[O-])cc32)c1=O
[2]
  IC50: 40.3 µM (active)

## Cc1ccc(NC(S)=NCc2ccccn2)cc1
[3]
  IC50: > 47.1 µM (inactive)
[4]
  EC50: > 53 µM (inactive)

## COc1cccc(C2CC(c3ccccc3)n3ncnc3N2)c1 (stereo unspecified)
[1]
  EC50: > 195 µM (not active)

## CC(O)CNCCCOc1ccc(Cl)cc1C(C)(C)C (stereo unspecified)
[1]
  EC50: 142 µM (active)

## FC(F)(F)c1ccccc1N=C(S)N1CCN(Cc2ccc3c(c2)OCO3)CC1
INS1
  AC50: 7.02 µM (active)

## O=C(c1cccc(Cl)c1)N1CCN(Cc2ccncc2)CC1
[2]
  IC50: 99.7 µM (active)

## NS(=O)(=O)c1ccc(NC(S)=Nc2ccc(F)c(F)c2)cc1
[3]
  IC50: > 47.1 µM (inactive)
[4]
  EC50: > 53 µM (inactive)

## COCCNCC(=O)Nc1ccc(C)c(S(=O)(=O)N2CCCCC2)c1
[2]
  IC50: 132 µM (active)

## O=C(Nc1ccc(N2CCN(Cc3ccccc3Cl)CC2)cc1)c1cccnc1
INS1
  AC50: 4.75 µM (active)

## COc1ccc(-n2cccc2/C=C2/NC(=O)N(c3cccc(Cl)c3)C2=O)cc1
[1]
  EC50: 30.2 µM (active)

## COc1ccc(C(=O)COC(=O)CCN2C(=O)C3C4CC(C(Br)C4Br)C3C2=O)cc1 (stereo unspecified)
[1]
  EC50: > 195 µM (not active)

## Cc1ccc(S(=O)(=O)NC(C)(C)CSc2nncn2N)cc1
[1]
  EC50: > 195 µM (not active)

## CC(C)n1cc(CN2CCCC(CNS(=O)(=O)c3cccc4cccnc34)C2)cn1 (stereo unspecified)
[1]
  EC50: > 195 µM (not active)
[5]
  EC50: 0.798 µM (active)
[6]
  EC50: > 60 µM (not active)

## CC(=O)Nc1cc[n+](C(C)C(=O)c2ccccc2)cc1 (stereo unspecified)
[1]
  EC50: > 195 µM (not active)

## CC(C)(C)c1ccc(SCCc2cccnc2)cc1
[3]
  IC50: > 47.1 µM (inactive)
[4]
  EC50: > 53 µM (inactive)

## Cc1ccc(S(=O)(=O)N(CC(=O)NCc2ccco2)Cc2ccccc2F)cc1
[3]
  IC50: > 47.1 µM (inactive)
[4]
  EC50: > 53 µM (inactive)

## CC(C)C[C@H](NC(=O)N1CCCCCC1)C(=O)O
[1]
  EC50: > 195 µM (not active)

## CC1CCCN(C(=O)CSc2nnc(-c3ccc(O)cc3)o2)C1 (stereo unspecified)
[1]
  EC50: > 195 µM (not active)

## CCOC(=O)NC(O)C(=O)c1cccs1 (stereo unspecified)
[3]
  IC50: > 47.1 µM (inactive)
[4]
  EC50: > 53 µM (inactive)

## Cc1nn(C)c(Oc2ccc(Cl)cc2)c1C(=O)O
[3]
  IC50: > 47.1 µM (inactive)
[4]
  EC50: > 53 µM (inactive)

## COc1ccc(-[n+]2cc(-c3ccccc3)n3c2CCCCC3)cc1
[5]
  EC50: 0.453 µM (active)
[6]
  EC50: > 30 µM (not active)
INS1
  AC50: 1.66 µM (active)

## c1cc(CNc2ccc3c(c2)OCCO3)ccn1
[1]
  EC50: 6.77 µM (active)
[2]
  IC50: 108 µM (active)

## COc1cccc(Cn2c(=O)c(-c3cn(C)c4ccccc34)nc3cnc(OC)nc32)c1
Cytochrome P450 1A2
  AC50: 15.8 µM (inconclusive)
Cytochrome P450 2C9
  AC50: 12.6 µM (inconclusive)

## CCc1ccc2nc3sc(C(=O)O)cc3cc2c1
[2]
  IC50: 122 µM (active)

## N=C(N)Nc1nc(CCN2C(=O)c3ccccc3C2=O)cs1
Cytochrome P450 1A2
  AC50: 12.6 µM (inconclusive)
Cytochrome P450 2C9
  AC50: 17.8 µM (inconclusive)

## COc1c(Cl)cc(Cl)cc1CNc1ccc(S(N)(=O)=O)cc1
[3]
  IC50: > 47.1 µM (inactive)
[4]
  EC50: > 53 µM (inactive)

## O=C(Nc1cccc(Cl)c1)N1CCOCC1
[1]
  EC50: > 195 µM (not active)

## CCOC(=O)c1nc(S)n(Cc2ccccc2)c1C(=O)OCC
[2]
  IC50: 49.6 µM (active)

## COc1ccc(S(=O)(=O)N2CCCCCC2)cc1C(=O)NCCc1ccccc1
[3]
  IC50: > 47.1 µM (inactive)
[4]
  EC50: > 53 µM (inactive)

## O=C(C1CCN(C2CCN(CC3CC=CCC3)CC2)CC1)N1CCOCC1 (stereo unspecified)
[3]
  IC50: > 47.1 µM (inactive)
[4]
  EC50: > 53 µM (inactive)

## O=C(O)CC1SC(Nc2ccc(O)cc2)=NC1=O (stereo unspecified)
[2]
  IC50: 118 µM (active)

## COc1ccc(C(=O)N/N=C/c2ccccc2OC(=O)c2ccccc2)cc1
INS1
  AC50: 2.35 µM (active)

## COc1ccc(NC2CCCN(C(=O)c3ccccc3-c3ncc[nH]3)C2)cc1 (stereo unspecified)
[2]
  IC50: 146 µM (active)

## Cc1[nH]n(CCC#N)c(=O)c1CC(=O)N1CCN(c2ccccc2)CC1
[1]
  EC50: > 195 µM (not active)
[3]
  IC50: > 47.1 µM (inactive)
[4]
  EC50: > 53 µM (inactive)

## CN(C)CCO/N=C(\c1ccc(Br)cc1)c1cccnc1
[2]
  IC50: 141 µM (active)

## CN(C)c1ccc(/C=N/NC(=O)c2cccc(N3CCCC3=O)c2)cc1
[1]
  EC50: > 195 µM (not active)

## CC1(C)CC(=O)C(/C=N/c2ccc(N)cc2)=C(O)C1
[2]
  IC50: 46.9 µM (active)

## COc1cc(/C=N/n2c(C)nc3ccccc3c2=O)ccc1O
[2]
  IC50: 48.5 µM (active)

## Cc1ccc2c(c1)N(C)/C(=C/c1cccc[n+]1CCO)S2
INS1
  AC50: 4.37 µM (active)
